This assay deals with T1, human GHS-R 1a (Homo sapiens, UniProt Q92847).
T1 construct: expressed in transfected cells; host or cells: LLC PK-1 porcine renal epithelial cells (ECACC No. 86121112), isolated plasma membranes
T1 sequence (Q92847 whole entry): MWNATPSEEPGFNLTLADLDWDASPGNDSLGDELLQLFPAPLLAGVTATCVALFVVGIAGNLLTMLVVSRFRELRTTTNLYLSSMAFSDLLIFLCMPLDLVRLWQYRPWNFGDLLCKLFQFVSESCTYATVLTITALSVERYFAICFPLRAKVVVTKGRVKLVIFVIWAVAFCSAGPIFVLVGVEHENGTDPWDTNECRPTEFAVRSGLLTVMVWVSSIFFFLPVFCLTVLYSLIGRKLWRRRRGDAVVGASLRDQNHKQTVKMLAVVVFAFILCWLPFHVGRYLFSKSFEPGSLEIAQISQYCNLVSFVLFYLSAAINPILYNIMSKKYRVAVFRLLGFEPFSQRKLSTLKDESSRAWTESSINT
In words: GHS-R 1a receptor-ligand binding assay (membrane preparations from transfected LLC PK-1 cells). The following applies: displacement of 125I-His9-ghrelin (60 pM); membranes of LLC PK-1 cells transfected with human GHS-R 1a; mean of at least two independent experiments in triplicates. As to the method:
(J. Med. […] Med. Chem. 2003, 46: 1191-1203), were incubated in homogenization buffer HB [50 mM Tris (pH 7.3), 5 mM MgCl2, 2.5 mM EDTA, and 30 μg/mL bacitracin (Sigma)] for 60 min at 25° C. (steady-state conditions) with 60 pM ^125I-[…]-ghrelin (Amersham) in the presence or absence of competing compounds (compounds of the invention). […] Nonspecific binding was defined using an excess (10^-6 M) of ghrelin. The binding reaction was stopped by addition of 4 mL of ice-cold HB followed by rapid filtration over Whatman GP/C filters presoaked with 0.5% polyethyleneimine to prevent excessive binding of radioligand to the filters. […] IC50 values given are the mean of at least two independent experiments performed in triplicates.
On the technique in general: In a radioligand displacement assay an active substance lowers the binding of a labelled ligand.
Consider `COc1ccc(Cn2c(CCc3c[nH]c4ccccc34)nnc2[C@@H](Cc2c[nH]c3ccccc23)NC(=O)Cc2ccccn2)c(OC)c1` [compound 61, (R)—N-(1-(5-(2-(1H-indol-3-yl)ethyl)-4-(2,4-dimethoxybenzyl)-4H-1,2,4-triazol-3-yl)-2-(1H-indol-3-yl)ethyl)-2-(pyridin-2-yl)acetamide], for which the IC50 (usually the midpoint of a concentration-inhibition curve) stood at 34 nM.

`CC(C)(C)Sc1nnc([C@@H](COCc2ccccc2)NC(=O)C(C)(C)N)n1Cc1ccccc1` [Example 8 from WO 00/54729 A2, (S)—N-(1-(4-benzyl-5-(tert-butylthio)-1,2,4-triazol-3-yl)-2-(benzyloxy)ethyl)-2-amino-2-methylpropanamide, reference compound] gave an IC50 of approximately 20000 nM.

As to `O=C(N[C@H](Cc1c[nH]c2ccccc12)c1nnc(CCc2c[nH]c3ccccc23)n1-c1ccccc1)c1ccccn1` [compound 157, N—((R)-1-(5-(2-(1H-indol-3-yl)ethyl)-4-phenyl-4H-1,2,4-triazol-3-yl)-2-(1H-indol-3-yl)ethyl)picolinamide], the IC50 came out at 160 nM.

On to `CCc1ccc(Cn2c(CCc3ccccc3)nnc2[C@@H](Cc2c[nH]c3ccccc23)NC(=O)[C@H]2CCCNC2)cc1` [compound 155, (3S)—N—((R)-1-(4-(4-ethylbenzyl)-5-phenethyl-4H-1,2,4-triazol-3-yl)-2-(1H-indol-3-yl)ethyl)piperidine-3-carboxamide], for which the IC50 came out at 188 nM.

On to `COc1ccccc1Cn1c(CCc2c[nH]c3ccccc23)nnc1[C@@H](Cc1c[nH]c2ccccc12)NC(=O)C(C)(C)N` [compound 25], for which the IC50 is 96 nM.

Take `CCCCCCn1c(CCc2c[nH]c3ccccc23)nnc1[C@@H](Cc1c[nH]c2ccccc12)NC(=O)C(C)(C)N` [compound 15, (R)—N-(1-(5-(2-(1H-indol-3-yl)ethyl)-4-hexyl-4H-1,2,4-triazol-3-yl)-2-(1H-indol-3-yl)ethyl)-2-amino-2-methylpropanamide]: the IC50 was found to be 120 nM.

`CCc1ccc(Cn2c(CCc3ccccc3)nnc2[C@@H](Cc2c[nH]c3ccccc23)NC(=O)C2CNCCN2)cc1` (mixture of isomers) [compound 84] returned an IC50 of 247 nM.

Regarding `COc1ccc(Cn2c(CCc3ccccc3)nnc2[C@@H](Cc2c[nH]c3ccccc23)NC(=O)C2CNCCN2)cc1` (stereo partly shown) [compound 78], the IC50 amounted to 54 nM.

As for `COc1ccc(Cn2c(CCc3ccccc3)nnc2[C@@H](Cc2c[nH]c3ccccc23)NC(=O)Cc2ccccn2)cc1` [compound 51, (R)—N-(1-(4-(4-methoxybenzyl)-5-phenethyl-4H-1,2,4-triazol-3-yl)-2-(1H-indol-3-yl)ethyl)-2-(pyridin-2-yl)acetamide], the IC50 was 3 nM.

The compound `O=C(N[C@H](Cc1c[nH]c2ccccc12)c1nnc(CCc2ccccc2)n1-c1ccccc1)c1ccccn1` [compound 146, N—((R)-2-(1H-indol-3-yl)-1-(5-phenethyl-4-phenyl-4H-1,2,4-triazol-3-yl)ethyl)picolinamide] showed an IC50 of 105 nM.

With `COc1ccc(Cn2c(CCc3c[nH]c4ccccc34)nnc2[C@@H](Cc2c[nH]c3ccccc23)NC(=O)C2CCCNC2)c(OC)c1` (stereo partly drawn) [compound 32, (R)—N-(1-(5-(2-(1H-indol-3-yl)ethyl)-4-(2,4-dimethoxybenzyl)-4H-1,2,4-triazol-3-yl)-2-(1H-indol-3-yl)ethyl)piperidine-3-carboxamide], the IC50 is 10.3 nM.

In the case of `COc1ccc(Cn2c(CCc3c[nH]c4ccccc34)nnc2[C@@H](Cc2c[nH]c3ccccc23)NC(=O)Cc2ccncc2)cc1` [compound 136, N—((R)-1-(5-(2-(1H-indol-3-yl)ethyl)-4-(4-methoxybenzyl)-4H-1,2,4-triazol-3-yl)-2-(1H-indol-3-yl)ethyl)-2-(pyridin-4-yl)acetamide], the IC50 was 106 nM.

In the case of `COc1ccc(Cn2c(CCc3c[nH]c4ccccc34)nnc2[C@@H](Cc2c[nH]c3ccccc23)NS(=O)(=O)c2ccc(C)cc2)c(OC)c1` [compound 187, (R)-1-(5-(2-(1H-indol-3-yl)ethyl)-4-(2,4-dimethoxybenzyl)-4H-1,2,4-triazol-3-yl)-2-(1H-indol-3-yl)-N-tosylethanamine], the IC50 turned out to be 66 nM.

In turn, `CC(C)(N)C(=O)N[C@H](Cc1c[nH]c2ccccc12)c1nnc(CCCc2c[nH]c3ccccc23)n1CCc1ccccc1` [compound 3, (R)—N-(1-(5-(3-(1H-indol-3-yl)propyl)-4-phenethyl-4H-1,2,4-triazol-3-yl)-2-(1H-indol-3-yl)ethyl)-2-amino-2-methylpropanamide] had an IC50 of 14 nM.

The compound `COc1ccc(Cn2c(CCc3ccccc3)nnc2[C@@H](Cc2c[nH]c3ccccc23)NC(=O)c2ccccc2)cc1` [compound 176, N—((R)-1-(4-(4-methoxybenzyl)-5-phenethyl-4H-1,2,4-triazol-3-yl)-2-(1H-indol-3-yl)ethyl)benzamide] yielded an IC50 of 80 nM.

`COc1ccc(Cn2c(CCc3ccccc3)nnc2[C@@H](Cc2c[nH]c3ccccc23)NC(=O)C2CCNCC2)c(OC)c1` [compound 62, (R)—N-(1-(4-(2,4-dimethoxybenzyl)-5-phenethyl-4H-1,2,4-triazol-3-yl)-2-(1H-indol-3-yl)ethyl)piperidine-4-carboxamide] displayed an IC50 of 0.9 nM.

Compound `COc1cccc(Cn2c(CCc3ccccc3)nnc2[C@@H](Cc2c[nH]c3ccccc23)NC(=O)C(C)(C)N)c1` [compound 19, (R)—N-(1-(4-(3-methoxybenzyl)-5-phenethyl-4H-1,2,4-triazol-3-yl)-2-(1H-indol-3-yl)ethyl)-2-amino-2-methylpropanamide] came in with an IC50 of 78 nM.

Turning to `COc1cccc(Cn2c(Cc3ccccc3)nnc2[C@@H](Cc2c[nH]c3ccccc23)NC(=O)C(C)(C)N)c1` [compound 7, (R)—N-(1-(4-(3-methoxybenzyl)-5-benzyl-4H-1,2,4-triazol-3-yl)-2-(1H-indol-3-yl)ethyl)-2-amino-2-methylpropanamide], the IC50 was found to be 120 nM.

`CC(C)(N)C(=O)N[C@H](Cc1c[nH]c2ccccc12)c1nnc(CCCc2c[nH]c3ccccc23)n1Cc1ccc(Br)cc1` [compound 14, (R)—N-(1-(5-(3-(1H-indol-3-yl)propyl)-4-(4-bromobenzyl)-4H-1,2,4-triazol-3-yl)-2-(1H-indol-3-yl)ethyl)-2-amino-2-methylpropanamide]: the IC50 amounted to 150 nM.

The compound `CC(C)(N)C(=O)N[C@H](Cc1c[nH]c2ccccc12)c1nnc(CCCc2c[nH]c3ccccc23)n1Cc1cccc2ccccc12` [compound 11, (R)—N-(1-(5-(3-(1H-indol-3-yl)propyl)-4-(naphthalen-1-ylmethyl)-4H-1,2,4-triazol-3-yl)-2-(1H-indol-3-yl)ethyl)-2-amino-2-methylpropanamide] gave an IC50 of 137 nM.

Compound `COc1ccc(Cn2c(CCc3ccccc3)nnc2[C@@H](Cc2c[nH]c3ccccc23)NC(=O)c2cnccn2)cc1` [compound 76, (R)—N-(1-(4-(4-methoxybenzyl)-5-phenethyl-4H-1,2,4-triazol-3-yl)-2-(1H-indol-3-yl)ethyl)pyrazine-2-carboxamide] displayed a 50% inhibitory concentration (IC50) of 14 nM.

`CC(C)(N)C(=O)N[C@H](Cc1c[nH]c2ccccc12)c1nnc(CCc2c[nH]c3ccccc23)n1Cc1ccc(Br)cc1` [compound 92, (R)—N-(1-(5-(2-(1H-indol-3-yl)ethyl)-4-(4-bromobenzyl)-4H-1,2,4-triazol-3-yl)-2-(1H-indol-3-yl)ethyl)-2-amino-2-methylpropanamide] showed an IC50 of 200 nM.

Regarding `CCc1ccc(Cn2c(CCc3ccccc3)nnc2[C@@H](Cc2c[nH]c3ccccc23)NC(=O)c2cnccn2)cc1` [compound 85, (R)—N-(1-(4-(4-ethylbenzyl)-5-phenethyl-4H-1,2,4-triazol-3-yl)-2-(1H-indol-3-yl)ethyl)pyrazine-2-carboxamide], the IC50 amounted to 89 nM.

Regarding `CC(C)(N)C(=O)N[C@H](COCc1ccccc1)c1nnnn1Cc1ccccc1` [Example from page 175, WO 00/54729 A2, (S)—N-(1-(1-benzyl-tetrazol-5-yl)-2-(benzyloxy)ethyl)-2-amino-2-methylpropanamide, reference compound], the IC50 was approximately 25000 nM.

For the compound `CCc1ccc(Cn2c(CCc3ccccc3)nnc2[C@@H](Cc2c[nH]c3ccccc23)NC(=O)C2CCNCC2)cc1` [compound 83, (R)—N-(1-(4-(4-ethylbenzyl)-5-phenethyl-4H-1,2,4-triazol-3-yl)-2-(1H-indol-3-yl)ethyl)piperidine-4-carboxamide], the IC50 was found to be 19 nM.

Regarding `CC(C)(N)C(=O)N[C@H](Cc1c[nH]c2ccccc12)c1nnc(CCc2c[nH]c3ccccc23)n1-c1ccccc1` [compound 175, N—((R)-1-(5-(2-(1H-indol-3-yl)ethyl)-4-phenyl-4H-1,2,4-triazol-3-yl)-2-(1H-indol-3-yl)ethyl)-2-amino-2-methylpropanamide], the IC50 was 140 nM.

As to `COc1ccc(Cn2c(CCc3ccccc3)nnc2[C@@H](Cc2c[nH]c3ccccc23)NC(=O)C2CCOCC2)cc1` [compound 184, N—((R)-1-(4-(4-methoxybenzyl)-5-phenethyl-4H-1,2,4-triazol-3-yl)-2-(1H-indol-3-yl)ethyl)-tetrahydro-2H-pyran-4-carboxamide], the IC50 turned out to be 5.9 nM.

The compound `CCc1ccc(Cn2c(CCc3ccccc3)nnc2[C@@H](Cc2c[nH]c3ccccc23)NC(=O)c2ccccn2)cc1` [compound 138, N—((R)-1-(4-(4-ethylbenzyl)-5-phenethyl-4H-1,2,4-triazol-3-yl)-2-(1H-indol-3-yl)ethyl)picolinamide] gave an IC50 of 44 nM.

(Values after patent US8710089B2, “Triazole derivatives as ghrelin analogue ligands of growth hormone secretagogue receptors” (Zentaris GmbH, priority 2005, dated 2014).)
